From patent US20050096308A1, “Antibacterial agents” (priority 2003, published 2005) come the findings set out here.

In brackets after ≈: the same amount, converted by molar mass.

Experiment in all cases: Antibacterial assay (Test A), standard microtitration, MIC
Holding throughout (assay type): cell-based

Assay [1] deals with S. aureus UC-76. Conditions: Staphylococcus aureus, UC76; Gram Positive Bacteria; strain UC-76; read-out: Minimum Inhibitory Concentrations S. aureus UC-76. As to the method: (§1) Test A—Antibacterial Assays
(§2) The compounds of the present invention were tested against an assortment of Gram-negative and Gram-positive organisms using standard microtitration techniques (Cohen et. al., Antimicrob., 1985;28:766; Heifetz, et. al., Antimicrob., 1974;6:124).

Assay [2] deals with S pyogenes C203. Conditions: Gram Positive Bacteria; strain C203; read-out: Minimum Inhibitory Concentrations S pyogenes C203. As for the experimental part:
as §1, §2

For assay [3], the system named is E. faecalis MGH-2. Conditions: Enterococcus faecalis, MGH2; Gram Positive Bacteria; strain MGH-2; read-out: Minimum Inhibitory Concentrations E. faecalis MGH-2. As for the experimental part:
as §1, §2

For assay [4], the system named is H. influenzae HI-3542. Conditions: Haemophilus influenzae, HI3542; Gram Negative Bacteria; strain HI-3542; read-out: Minimum Inhibitory Concentrations H. influenzae HI-3542. As for the experimental part: as §1, §2
The subject of assay [5] is M. catarrhalis BC-3531. Conditions: Moraxella catarrhalis, BC3531; Gram Negative Bacteria; strain BC-3531; read-out: Minimum Inhibitory Concentrations M. catarrhalis BC-3531. As for the experimental part: as §1, §2
The test system of assay [6] is E. coli MC4100. Conditions: Escherichia coli; Gram Negative Bacteria; strain MC4100; read-out: Minimum Inhibitory Concentrations E. coli MC4100. As to the method:
as §1, §2

`Nc1nc(-n2c(=O)n(N)c(=O)c3cc(F)c(N4CC(O)C4)c(Cl)c32)c(F)cc1F` [drawing 123]: the MIC in assay [1] amounted to 4 µg/mL (≈ 9.33 µM); in assay [2] it was 16 µg/mL (≈ 37.3 µM); in assay [3], 16 µg/mL (≈ 37.3 µM).
Regarding `Nn1c(=O)c2cc(F)c(N3CC(O)(c4ccc(F)cc4)C3)c(Cl)c2n(C2CC2)c1=O` [drawing 121], the MIC was 32 µg/mL (≈ 73.6 µM) in assay [4], 16 µg/mL (≈ 36.8 µM) in assay [5] and 64 µg/mL (≈ 147 µM) in assay [6].
For `Cc1c(N2CC(O)C2)c(F)cc2c(=O)n(N)c(=O)n(C3CC3)c12` [drawing 124], the MIC in assay [1] was 1 µg/mL (≈ 3.12 µM); in assay [2] it was 16 µg/mL (≈ 49.9 µM); in assay [3], 32 µg/mL (≈ 99.9 µM).
`Nn1c(=O)c2cc(F)c(N3CC(O)(C4CC4)C3)c(Cl)c2n(C2CC2)c1=O` [drawing 120]: the MIC in assay [4] stood at 0.03 µg/mL (≈ 0.0788 µM); in assay [5], 0.03 µg/mL (≈ 0.0788 µM); in assay [6] it was 0.002 µg/mL (≈ 0.00525 µM).
For the molecule `CC(C)C1(O)CN(c2c(F)cc3c(=O)n(N)c(=O)n(C4CC4)c3c2Cl)C1` [drawing 122], the MIC in assay [4] came to 32 µg/mL (≈ 83.6 µM); in assay [5], 32 µg/mL (≈ 83.6 µM); in assay [6], 64 µg/mL (≈ 167 µM).
On to `CC(C)C1(O)CN(c2c(F)cc3c(=O)n(N)c(=O)n(C4CC4)c3c2Cl)C1` [drawing 128], for which the MIC in assay [1] came to 16 µg/mL (≈ 41.8 µM); in assay [2] it was 64 µg/mL (≈ 167 µM); in assay [3], 32 µg/mL (≈ 83.6 µM).
For the molecule `Cc1c(N2CC(CCO)C2)c(F)cc2c(=O)n(N)c(=O)n(C3CC3)c12` [drawing 119], the results for the MIC in assay [4], in assay [5] and in assay [6] were 4 µg/mL (≈ 11.5 µM), 4 µg/mL (≈ 11.5 µM) and 32 µg/mL (≈ 91.9 µM), respectively.
Take `Nn1c(=O)c2cc(F)c(N3CC(O)(C4CC4)C3)c(Cl)c2n(C2CC2)c1=O` [drawing 126]: the MIC was 0.03 µg/mL (≈ 0.0788 µM) in assay [1], 0.5 µg/mL (≈ 1.31 µM) in assay [2] and 0.5 µg/mL (≈ 1.31 µM) in assay [3].
On to `Cc1c(N2CC(CCO)C2)c(F)cc2c(=O)n(N)c(=O)n(C3CC3)c12` [drawing 125], for which the MIC in assay [1] turned out to be 4 µg/mL (≈ 11.5 µM); in assay [2] it was 16 µg/mL (≈ 45.9 µM); in assay [3], 16 µg/mL (≈ 45.9 µM).
`Nc1nc(-n2c(=O)n(N)c(=O)c3cc(F)c(N4CC(O)C4)c(Cl)c32)c(F)cc1F` [drawing 117]: the MIC was determined as 1 µg/mL (≈ 2.33 µM) in assay [4], 4 µg/mL (≈ 9.33 µM) in assay [5] and 64 µg/mL (≈ 149 µM) in assay [6].
`Nn1c(=O)c2cc(F)c(N3CC(O)(c4ccc(F)cc4)C3)c(Cl)c2n(C2CC2)c1=O` [drawing 127]: the MIC in assay [1] was 4 µg/mL (≈ 9.2 µM); in assay [2], 8 µg/mL (≈ 18.4 µM); in assay [3], 16 µg/mL (≈ 36.8 µM).
For `Cc1c(N2CC(O)C2)c(F)cc2c(=O)n(N)c(=O)n(C3CC3)c12` [drawing 118], the MIC worked out at 32 µg/mL (≈ 99.9 µM) in assay [4], 1 µg/mL (≈ 3.12 µM) in assay [5] and 1 µg/mL (≈ 3.12 µM) in assay [6].
